# Patent US20040024033A1 (priority 1998, published 2004)
# Experiments:
# [1] = tested on: human HCT-15 colon carcinoma; format: in vivo, female BALB/c nude mice
# Description: (§1) Female or male BALB/c nu/nu (nude) mice are kept under sterile conditions (10 to 12 mice per Type III cage) with free access to food and water. Mice weigh between 20 and 25 grams at the time of tumor implantation. Tumors are established by subcutaneous injection of cells (minimum 2×10^6 cells in 100 μl PBS or medium) in carrier mice (4-8 mice per cell line). The resulting tumors are serially passaged for a minimum of three consecutive transplantations prior to start of treatment. Tumor fragments (approx. 25 mg) are implanted s.c. into the left flank of animals with a 13-gauge trocar needle while the mice are exposed to Forene (Abbott, Switzerland) anesthesia.
# (§2) Tumor growth and body weights are monitored once or twice weekly. All treatments are administered intravenously (i.v.) and are initiated when a mean tumor volume of approximately 100 to 250 mm^3 is attained, depending upon the tumor type. Tumor volumes are determined using the formula […] (see Cancer Chemother. Pharmacol. 24:148-154, [1989]). Treatments with epothilone B vary the dose and the frequency of administration. Comparator agents are administered according to previously determined optimal treatment regimens. In addition to presenting changes in tumor volumes over the course of treatment, antitumor activity is expressed as T/C% (mean increase of tumor volumes of treated animals divided by the mean increase of tumor volumes of control animals multiplied by 100). Tumor regression (%) represents the smallest mean tumor volume compared to the mean tumor volume at the start of treatment, according to the formula Regression (%)=(1−Vend/Vstart)×100 (Vend=final mean tumor volume, Vstart=mean tumor volume at the start of treatment. Any animals in which the tumor has reached a size exceeding approximately 1.5 to 2.5 cm^3 are sacrificed. Details can be found below.
# Tumor fragments of approximately 25 mg are implanted into the left flank of each female nude mouse (n=8 per group). Treatments are started on day 14 after tumor transplantation. Epothilone B is administered once at 4 mg/kg, i.v. on day 14.5-Fluorouracil is administered at 75 mg/kg, i.v., on days 14 and 21. TAXOL® is administered i.v. at 20 mg/kg/day, every second day for 5 treatments (days 14, 16, 18, 20 and 22). Antitumor activity is expressed as T/C% (mean increase of tumor volumes of treated animals divided by the mean increase of tumor volumes of control animals multiplied by 100). Tumor regression (%) represents the final mean tumor volume compares to the mean tumor volume at the start of treatment. Δ Tumor volumes represent the tumor volume on the last treatment day minus the tumor volume on the first treatment day. Statistical analyses on Δ tumor volumes uses Dunnett's test to compare treatment groups to controls. Statistical analyses on body weight changes uses paired t-tests comparing body weights before treatment to those at the end of treatment; mice weigh ˜20-25 g at the start of treatment. Not significant is indicated by the abbreviation ,ns”. Data presented are means±SEM from animals surviving to the end of the experiment.
# [2] = tested on: human COLO 205 colon tumors; format: in vivo, female BALB/c nude mice; conditions: 75 mg/kg, i.v. every 7 days; day 32
# Description: as §1, §2
# Tumor fragments of approximately 25 mg are implanted into the left flank of each female nude mouse (n=7 per group); a subcutaneous estrogen pellet is placed on the opposite flank. Treatments are started on day 14 after tumor transplantation. epothilone B is administered at 4 mg/kg, i.v., either once or once per week (days 14, 21, 28) or every second week (days 14 and 28). 5-fluorouracil is administered i.v. at 75 mg/kg on days 14, 21, 28. Data presented are from animals surviving to day 32, four days after the last treatments. Antitumor activity is expressed as T/C% (mean increase of tumor volumes of treated animals divided by the mean increase of tumor volumes of control animals multiplied by 100). Tumor regression (%) represents the final mean tumor volume compared to the mean tumor volume at the start of treatment. Changes (A) in tumor volumes represent the tumor volume on the last treatment day minus the tumor volume on the first treatment day.
# ZR-75-1 (Breast) = assay: Antiproliferative assay, ZR-75-1; format: cell-based; conditions: Homo sapiens, 120 h, 5 d exposure, mean ± SD, n = 3, read-out: IC50-values for growth inhibition
# Description: (§3) Antiproliferative assays are performed as previously described (Int. J. Cancer 43, 851-6 (1989)). Briefly, cells are seeded at 1.5×10^3 cells/well into 96-well microtiter plates and incubated overnight. Compounds are added in serial dilutions on day 1. The plates are then incubated for an additional 2 to 5 days, allowing for at least one cell doubling (cell line dependent), after which the cells are fixed with 3.3% v/v glutaraldehyde, washed with water and stained with 0.05% w/v methylene blue. After washing, the dye is eluted with 3% V/V HCl and the optical density measured at 665 nm with a SpectraMax 340 (Bucherer, Basel, Switzerland). IC50 values are determined by a computerized system (SoftPro, Bucherer, Basel, Switzerland) using the formula (OD test−OD start)/(OD control−OD start)×100. IC50 is defined as the drug concentration which leads to 50% of cells per well compared to control cultures (100%) at the end of incubation period.
# HCT-15 (Colon) = assay: Antiproliferative assay, HCT-15; format: cell-based; conditions: Homo sapiens, 120 h, 5 d exposure, mean ± SD, n = 3, read-out: IC50-values for growth inhibition
# Source text: Human colorectal adenocarcinoma cell line HCT-15 (ATCC CCL 225) is from the American Type Culture Collection (Rockville, Md., USA), and the cells are cultivated in vitro as recommended by the supplier. HCT-15 is an epithelial-like cell line (Cancer Res. 39: 1020-25 [1979]) that is multi-drug resistant by virtue of over-expression of P-glycoprotein (P-gp, gp170, MDR-1; Anticancer Res. 11: 1309-12 [1991]; J. Biol. Chem. 264: 18031-40 [1989]; Int. J. Cancer 1991; 49: 696-703 [1991]) and glutathione-dependent resistance mechanisms (Int. J. Cancer 1991; 49: 688-95.[1991]).
# as §3, with “IC50 is defined as the drug concentration which leads to 50% of cells per well compared to control cultures (100%) at the end of incubation period.” left out
# [3] = tested on: KB-8511 (Epidermoid, MDR); assay: Antiproliferative assay, KB-8511; format: cell-based; conditions: Homo sapiens, 48 h, 2 d exposure, mean ± SD, read-out: IC50-values for growth inhibition
# Description: The human epidermal (mouth) carcinoma cell line KB-8511 (a P-gp over-expressing cell line derived from the epidermoid (mouth) KB-31 carcinoma cell line) is obtained from Dr. R. M. Baker, Roswell Park Memorial Institute (Buffalo, N.Y., USA) (for description see Akiyama et al., Somat. Cell. Mol. Genetics 11, 117-126 (1985) and Fojo A., et al., Cancer Res. 45, 3002-3007 (1985)) and is cultured as previously described (Meyer, T., et al., Int. J. Cancer 43, 851-856 (1989)): KB-8511 cells, like KB-31, are derived from the KB cell line (ATCC) and they are human epidermal carcinoma cells; KB-31 cells can be grown in mono-layer using Dulbecco's modified Eagle's medium (D-MEM) with 10% fetal calf serum (M.A. Bioproducts), L-glutamine (Flow), penicillin (50 units/ml) and streptomycin (50 μg/ml (Flow); they then grow with a doubling time of 22 h, and their relative plating efficiency is approximately 60%.
# (§4) Antiproliferative assays are performed as previously described (Int. J. Cancer 43, 851-6 (1989)). […] After washing, the dye is eluted with 3% V/V HCl and the optical density measured at 665 nm with a SpectraMax 340 (Bucherer, Basel, Switzerland). IC50 values are determined by a computerized system (SoftPro, Bucherer, Basel, Switzerland) using the formula (OD test−OD start)/(OD control−OD start)×100. […]
# PC-3M (Prostate) = assay: Antiproliferative assay, PC-3M; format: cell-based; conditions: Homo sapiens, 72 h, 3 d exposure, mean ± SD, read-out: IC50-values for growth inhibition
# Description: A human androgen-independent prostate cancer cell line is used to establish subcutaneous and orthotopic models in mice. The human metastatic prostate carcinoma PC-3M is obtained from Dr. I. J. Fidler (MD Anderson Cancer Center, Houston, Tex., USA) and is cultured in Ham's F12K media supplemented with 7% v/v FBS. The PC-3M cell line is the result of isolation from liver metastasis produced in nude mice subsequent to intrasplenic injection of PC-3 cells [ATCC CRL 1435; American Type Culture Collection (Rockville, Md., USA)], and they can grow in Eagle's MEM supplemented with 10% fetal bovine serum, sodium pyruvate, non-essential amino acids, L-glutamine, a two-fold vitamin solution (Gibco Laboratories, Long Island, N.Y.) and penicillin-streptomycin (Flow Laboratories, Rockville, Md.). The PC-3M cell line is hormone-insensitive (that is, it grows in the absence of androgens). […] No normal Y chromosomes can be detected by Q-band analysis.
# as §4
IC50 (HCT-15 (Colon)),IC50 [3],IC50 (PC-3M (Prostate)),SMILES,"% Body Weight Change ([1]; 75 mg/kg, i.v., on days 14 and 21)","D Body Weight ([1]; 75 mg/kg, i.v., on days 14 and 21, mean ± SEM)",Mortalities (deaths) ([1]; two 75 mg/kg administrations),T/C [2],IC50 (ZR-75-1 (Breast))
–,–,–,"O=c1[nH]cc(F)c(=O)[nH]1 [5-fluorouracil, reference compound]",9 ± 4%,2.0 ± 0.7 g,50%,18%,–
0.106 ± 0.054 µM,0.994 µM,0.00674 µM,CC(=O)O[C@H]1C(=O)[C@@]2(C)[C@H]([C@H](OC(=O)c3ccccc3)[C@]3(O)C[C@H](OC(=O)[C@H](O)[C@@H](NC(=O)c4ccccc4)c4ccccc4)C(C)=C1C3(C)C)[C@]1(OC(C)=O)CO[C@@H]1C[C@@H]2O [paclitaxel],–,–,–,–,0.0036 ± 0.00187 µM
